Data reported in article PMC5116409 (Nanomedicine : nanotechnology, biology, and medicine, 2016).

Experiments:
[1] = biological target: T1, HIV-1 reverse transcriptase Y181C (Human immunodeficiency virus type 1 group M subtype B, UniProt P03366, Y780C); test: RNA-dependent DNA polymerization by recombinant HIV-1 RT; assay type: biochemical
[2] = biological target: T2, HIV-1 reverse transcriptase V106A (Human immunodeficiency virus type 1 group M subtype B, UniProt P03366, V705A); test: DNA-dependent DNA polymerization by recombinant HIV-1 RT; assay type: biochemical
[3] = biological target: T2, HIV-1 reverse transcriptase V106A; test: RNA-dependent DNA polymerization by recombinant HIV-1 RT; assay type: biochemical
[4] = biological target: T3, HIV-1 reverse transcriptase L100I (Human immunodeficiency virus type 1 group M subtype B, UniProt P03366, L699I); test: DNA-dependent DNA polymerization by recombinant HIV-1 RT; assay type: biochemical
[5] = biological target: T4, HIV-1 reverse transcriptase K103N (Human immunodeficiency virus type 1 group M subtype B, UniProt P03366, K702N); test: RNA-dependent DNA polymerization by recombinant HIV-1 RT; assay type: biochemical
[6] = biological target: T3, HIV-1 reverse transcriptase L100I; test: as above; assay type: biochemical
[7] = biological target: T5, HIV-1 reverse transcriptase Wild type (Human immunodeficiency virus type 1 group M subtype B, UniProt P03366); test: DNA-dependent DNA polymerization by recombinant HIV-1 RT; assay type: biochemical; details: From DMSO stock solution
[8] = biological target: T6, HIV-1 reverse transcriptase G190A (Human immunodeficiency virus type 1 group M subtype B, UniProt P03366, G789A); test: as above; assay type: biochemical
[9] = biological target: T6, HIV-1 reverse transcriptase G190A; test: RNA-dependent DNA polymerization by recombinant HIV-1 RT; assay type: biochemical
[10] = biological target: T5, HIV-1 reverse transcriptase Wild type; test: biochemical; details: RNA-dependent DNA polymerization, IC50, Wild type RT; From DMSO stock solution
[11] = biological target: T1, HIV-1 reverse transcriptase Y181C; test: DNA-dependent DNA polymerization by recombinant HIV-1 RT; assay type: biochemical
[12] = toxicity to cells, WST-1 test; assay type: cell-based; details: human
[13] = biological target: T7, HIV-1 reverse transcriptase K103N+Y181C (Human immunodeficiency virus type 1 group M subtype B, UniProt P03366, K702N/Y780C); test: DNA-dependent DNA polymerization by recombinant HIV-1 RT; assay type: biochemical; details: From DMSO stock solution
[14] = biological target: T7, HIV-1 reverse transcriptase K103N+Y181C; test: RNA-dependent DNA polymerization by recombinant HIV-1 RT; assay type: biochemical; details: From DMSO stock solution
[15] = biological target: T4, HIV-1 reverse transcriptase K103N; test: DNA-dependent DNA polymerization by recombinant HIV-1 RT; assay type: biochemical

Cc1cc(C)cc(C(=O)c2cc(C)ccc2OCCn2ccc(=O)[nH]c2=O)c1 [Z007, 1-(2-(2-(3,5-dimethylbenzoyl)-4-methylphenoxy)ethyl)pyrimidine-2,4(1H,3H)-dione]
IC50 ([1]; Complex with HC-PGC (M5P21OL)): > 100 µM | IC50 ([1]; From DMSO stock solution): > 100 µM | IC50 [2]: > 100 µM | IC50 [3]: > 100 µM | IC50 ([4]; Complex with HC-PGC (M5P21OL)): > 100 µM | IC50 ([4]; From DMSO stock solution): > 100 µM | IC50 ([5]; Complex with HC-PGC (M5P21OL)): > 100 µM | IC50 ([5]; From DMSO stock solution): > 100 µM | IC50 ([6]; Complex with HC-PGC (M5P21OL)): > 100 µM | IC50 ([6]; From DMSO stock solution): 100 ± 30 µM | IC50 [7]: 40 ± 10 µM | IC50 ([8]; Complex with HC-PGC (M5P21OL)): > 100 µM | IC50 ([8]; From DMSO stock solution): > 100 µM | IC50 ([9]; Complex with HC-PGC (M5P21OL)): > 100 µM | IC50 ([9]; From DMSO stock solution): > 100 µM | IC50 [10]: 50 ± 20 µM | IC50 ([11]; Complex with HC-PGC (M5P21OL)): > 100 µM | IC50 ([11]; From DMSO stock solution): > 100 µM | CC50 at 4 h [12]: > 50 µM | IC50 [13]: > 100 µM | IC50 [14]: > 100 µM | IC50 ([15]; Complex with HC-PGC (M5P21OL)): > 100 µM | IC50 ([15]; From DMSO stock solution): > 100 µM

O=C(c1cc(Cl)cc(Cl)c1)c1cc(Br)ccc1OCCn1ccc(=O)[nH]c1=O [Z011, 1-(2-(4-bromo-2-(3,5-dichlorobenzoyl)phenoxy)ethyl)pyrimidine-2,4(1H,3H)-dione]
IC50 [2]: > 100 µM | IC50 ([4]; Complex with HC-PGC (M5P21OL)): > 100 µM | IC50 ([4]; From DMSO stock solution): 1.8 ± 0.6 µM | IC50 [7]: 0.7 ± 0.1 µM | IC50 ([8]; Complex with HC-PGC (M5P21OL)): 2.6 ± 0.7 µM | IC50 ([8]; From DMSO stock solution): 1.6 ± 0.3 µM | IC50 ([11]; Complex with HC-PGC (M5P21OL)): 22 ± 5 µM | IC50 ([11]; From DMSO stock solution): 1.4 ± 0.5 µM | CC50 at 4 h [12]: > 50 µM | IC50 [13]: 10 ± 3 µM | IC50 ([15]; Complex with HC-PGC (M5P21OL)): > 100 µM | IC50 ([15]; From DMSO stock solution): 6 ± 1 µM

Cc1cc(C)cc(C(=O)c2cc(Cl)ccc2OCCn2c3c(c(=O)[nH]c2=O)CCC3)c1 [Z107, 1-(2-(4-chloro-2-(3,5-dimethylbenzoyl)phenoxy)ethyl)-1,5,6,7-tetrahydro-2H-cyclopenta[d]pyrimidine-2,4(3H)-dione]
IC50 ([1]; Complex with HC-PGC (M5P21OL)): 40 ± 10 µM | IC50 ([1]; From DMSO stock solution): 5 ± 2 µM | IC50 [2]: > 100 µM | IC50 [3]: > 100 µM | IC50 ([4]; Complex with HC-PGC (M5P21OL)): 1.5 ± 0.2 µM | IC50 ([4]; From DMSO stock solution): 3 ± 1 µM | IC50 ([5]; Complex with HC-PGC (M5P21OL)): 100 ± 30 µM | IC50 ([5]; From DMSO stock solution): 40 ± 10 µM | IC50 ([6]; Complex with HC-PGC (M5P21OL)): 15 ± 4 µM | IC50 ([6]; From DMSO stock solution): 10 ± 3 µM | IC50 [7]: 0.7 ± 0.2 µM | IC50 ([8]; Complex with HC-PGC (M5P21OL)): 0.9 ± 0.3 µM | IC50 ([8]; From DMSO stock solution): 45 ± 15 µM | IC50 ([9]; Complex with HC-PGC (M5P21OL)): 70 ± 20 µM | IC50 ([9]; From DMSO stock solution): 35 ± 10 µM | IC50 [10]: 3 ± 1 µM | IC50 ([11]; Complex with HC-PGC (M5P21OL)): 1.9 ± 0.5 µM | IC50 ([11]; From DMSO stock solution): 6 ± 2 µM | CC50 at 4 h [12]: > 50 µM | IC50 [13]: 50 ± 20 µM | IC50 [14]: 80 ± 30 µM | IC50 ([15]; Complex with HC-PGC (M5P21OL)): 95 ± 15 µM | IC50 ([15]; From DMSO stock solution): 70 ± 2 µM
